Data as given in patent US20060148782A1, “Method and medicine for treating a mammal presenting urinary incontinence, urinary urgency, or both” (priority 2003, published 2006).
Where a name gives a salt, the structure may show the parent alone.

Experiments:
[1] = Side effects reported by treated patients
Description: The patient is treated with a total daily dose of medicine, which includes an admixture of 25 mg of imipramine hydrochloride and 275 mg of stool softener (docusate sodium). […] A selective beta-blocker is administered in response to tachycardia on an as-needed basis.

[2] = test system: urinary incontinence and/or urinary urgency; test: Treatment of patients presenting urinary incontinence and/or urinary urgency (case examples)
Description: The patient stops taking the daily dosages.
The complaints include urinary incontinence and/or urinary urgency (awake and sleeping).
The patient is treated with a total daily dose of medicine, which includes 50 mg of tricyclic antidepressant (imipramine hydrochloride) and 300 mg of stool softener (docusate sodium).
The complaints include chronic urinary incontinence and/or urinary urgency.
The patient is treated with a total daily dose of medicine, which includes 50 mg of imipramine hydrochloride and 350 mg of stool softener (docusate sodium), ingested separately.
The complaints include chronic, intermittent urinary incontinence and urinary urgency.
The patient is treated with a total daily dose of medicine, which includes an admixture of 25 mg of imipramine hydrochloride and 275 mg of stool softener (docusate sodium).

urinary incontinence = test: Treatment of a group of cats and dogs presenting urinary incontinence; type: in vivo; conditions: admixture of 5 mg/day imipramine hydrochloride and 100 mg stool softener (or by weight), oral, after several days; group of twenty cats and dogs
Description: A group of twenty mammals, including female and male cats and dogs, present with urinary incontinence.

SMILES	adverse side effects ([1]; 75 mg/day imipramine pamoate without stool softener, oral)	control of bladder functions noted by patient ([2]; 75 mg/day imipramine pamoate without stool softener, oral, after several days)	recurrence of symptoms after stopping daily dosages ([2]; after about three days without treatment)	adverse side effects ([1]; 75 mg/day imipramine hydrochloride (25 mg/3 times daily) and a stool softener, oral)	adverse side effects ([1]; admixture of 25 mg/day imipramine hydrochloride and 275 mg docusate sodium, selective beta-blocker given as needed)	reduction or elimination of urinary incontinence (urinary incontinence)	control of bladder functions (awake and sleeping) noted by patient ([2]; 50 mg/day imipramine hydrochloride and 300 mg docusate sodium, oral, after several days)	control of bladder functions (awake and sleeping) noted by patient ([2]; 50 mg/day imipramine hydrochloride and 350 mg docusate sodium, ingested separately, oral, after several days)	control of bladder functions (awake and sleeping) noted by patient ([2]; 75 mg/day imipramine hydrochloride (25 mg/3 times daily) and a stool softener, oral, after several days)	control of bladder functions (awake and sleeping) noted by patient ([2]; admixture of 25 mg/day imipramine hydrochloride and 275 mg docusate sodium, oral, after several days)
CN(C)CCCN1c2ccccc2CCc2ccccc21.CN(C)CCCN1c2ccccc2CCc2ccccc21.O=C(O)c1cc2ccccc2c(Cc2c(O)c(C(=O)O)cc3ccccc23)c1O [imipramine pamoate, 5-[3-(dimethylamino)]propyl-10,11-dihydro-5H-dibenzazepine 4,4-methlyenebis-(3-hydroxy-2-napthoate)]	develops constipation	full control of bladder functions	bladder urgency and incontinence recur	–	–	–	–	–	–	–
CN(C)CCCN1c2ccccc2CCc2ccccc21 [imipramine hydrochloride, Imipramine hydrochloride]	–	–	–	tolerates a dry mouth	tachycardia	reduction or elimination of urinary incontinence for a significant portion of the members of the group	full control of bladder functions	partial to full control of bladder functions	partial to full control of bladder functions	partial to full control of bladder functions
